One assay concerns the target mMC3R (Mus musculus, UniProt P33033). Description: AlphaScreen cAMP agonist assay in HEK293 cells stably expressing mMC3R. Conditions: for Fold diff (mMC3R): decrease in agonist potency compared to peptide 1.
In another assay the target is mMC1R (Mus musculus, UniProt Q01727). Description: AlphaScreen cAMP agonist assay in HEK293 cells stably expressing mMC1R. The conditions noted are these: for Fold diff (mMC1R): decrease in agonist potency compared to peptide 1.
Another assay has as its target mMC5R (Mus musculus, UniProt P41149). Put plainly: AlphaScreen cAMP agonist assay in HEK293 cells stably expressing mMC5R. Conditions: for Fold diff (mMC5R): decrease in agonist potency compared to peptide 1.
The next assay has as its target mMC4R (Mus musculus, UniProt P56450). Description: AlphaScreen cAMP agonist assay in HEK293 cells stably expressing mMC4R. Conditions: for Fold diff (mMC4R): decrease in agonist potency compared to peptide 1.

Molecules are shown by their SMILES. Numbered stars: 1 amine (or outer) side, 2 acyl side, 3 side chain; on linkers, the order of the positions; unused ones are H or OH. Square brackets hold non-standard residues; d marks the D form. Peptide text beside a SMILES is read from it. X1 = C#Cc1cccc(-c2cn(C[C@H](N[*:1])C(=O)[*:2])nn2)c1; X2 = C#Cc1cccc(-c2cnnn2C[C@H](N[*:1])C(=O)[*:2])c1

Sequence of mMC3R (P33033 whole entry): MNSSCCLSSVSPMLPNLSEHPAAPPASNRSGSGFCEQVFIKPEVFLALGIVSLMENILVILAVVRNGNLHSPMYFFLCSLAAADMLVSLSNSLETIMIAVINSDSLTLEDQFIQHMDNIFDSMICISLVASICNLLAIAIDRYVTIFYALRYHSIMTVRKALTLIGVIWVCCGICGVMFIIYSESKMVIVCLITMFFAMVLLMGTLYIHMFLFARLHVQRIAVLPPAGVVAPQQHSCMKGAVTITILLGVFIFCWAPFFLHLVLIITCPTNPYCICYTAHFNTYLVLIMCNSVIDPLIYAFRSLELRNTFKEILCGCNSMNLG
Sequence of mMC4R (P56450 whole entry): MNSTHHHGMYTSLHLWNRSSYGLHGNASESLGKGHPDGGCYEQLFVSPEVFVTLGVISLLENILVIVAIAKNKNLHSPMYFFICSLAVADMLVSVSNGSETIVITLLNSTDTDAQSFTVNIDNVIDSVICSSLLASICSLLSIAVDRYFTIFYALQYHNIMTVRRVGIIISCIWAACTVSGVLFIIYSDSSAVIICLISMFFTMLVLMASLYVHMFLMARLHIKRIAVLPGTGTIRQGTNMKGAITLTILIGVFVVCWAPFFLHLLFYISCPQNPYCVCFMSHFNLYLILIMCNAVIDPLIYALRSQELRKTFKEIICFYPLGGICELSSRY
Sequence of mMC5R (P41149 whole entry): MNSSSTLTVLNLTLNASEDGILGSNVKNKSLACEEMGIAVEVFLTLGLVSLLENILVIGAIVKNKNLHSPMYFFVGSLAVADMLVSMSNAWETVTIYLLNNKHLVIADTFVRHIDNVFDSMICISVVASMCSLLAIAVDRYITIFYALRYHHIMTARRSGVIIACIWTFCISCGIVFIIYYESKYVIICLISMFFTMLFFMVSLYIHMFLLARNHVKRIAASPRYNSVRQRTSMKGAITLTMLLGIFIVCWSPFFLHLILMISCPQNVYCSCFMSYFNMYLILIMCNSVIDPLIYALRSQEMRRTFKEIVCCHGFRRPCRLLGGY
Sequence of mMC1R (Q01727 whole entry): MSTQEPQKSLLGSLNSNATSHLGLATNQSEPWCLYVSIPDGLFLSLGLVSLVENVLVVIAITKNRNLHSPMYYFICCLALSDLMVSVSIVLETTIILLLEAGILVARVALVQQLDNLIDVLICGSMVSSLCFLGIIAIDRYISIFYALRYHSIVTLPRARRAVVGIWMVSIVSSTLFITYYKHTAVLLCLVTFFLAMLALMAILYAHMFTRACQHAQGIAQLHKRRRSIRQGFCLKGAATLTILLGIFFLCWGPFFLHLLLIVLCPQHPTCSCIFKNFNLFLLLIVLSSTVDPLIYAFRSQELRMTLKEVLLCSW

As to `C#Cc1cccc(-c2cn(C[C@H](NC(=O)[C@H](Cc3ccccc3)NC(=O)[C@H](C)NC(=O)[C@H](CC(N)=O)NC(=O)[C@H](Cc3c[nH]c4ccccc34)NC(=O)[C@H](CCCNC(=N)N)NC(=O)[C@@H](Cc3ccccc3)NC(=O)[C@H](Cc3c[nH]cn3)NC(=O)[C@H](Cn3cc(-c4cccc(C#C)c4)nn3)NC(=O)[C@@H](N)Cc3ccc(O)cc3)C(=O)N[C@@H](Cc3ccc(O)cc3)C(N)=O)nn2)c1` [Peptide 9] (H-Y[X1]H[dF]RWNAF[X1]Y-NH2), on mMC3R, the EC50 was 1460 ± 245 nM and the “Fold diff (mMC3R)” value was determined as 665 fold. At mMC1R, it took 802 ± 227 nM to reach a half-maximal effect (EC50) and the “Fold diff (mMC1R)” value worked out at 5728 fold. At mMC5R, a half-maximal response (EC50) required 294 ± 4.8 nM and the “Fold diff (mMC5R)” value is on record as 122 fold. In addition, on mMC4R, the EC50 turned out to be 1520 ± 328 nM and the “Fold diff (mMC4R)” value amounted to 3540 fold.

For the compound `C[C@@H]1NC(=O)[C@H](CC(N)=O)NC(=O)[C@H](Cc2c[nH]c3ccccc23)NC(=O)[C@H](CCCN=C(N)N)NC(=O)[C@@H](Cc2ccccc2)NC(=O)[C@H](Cc2cnc[nH]2)NC(=O)[C@@H](NC(=O)[C@@H](N)Cc2ccc(O)cc2)CSSC[C@@H](C(=O)N[C@@H](Cc2ccc(O)cc2)C(N)=O)NC(=O)[C@H](Cc2ccccc2)NC1=O` [Peptide 1, Tyr-c[Cys-His-DPhe-Arg-Trp-Asn-Ala-Phe-Cys]-Tyr-NH2, reference compound], the EC50 turned out to be 2.2 ± 0.58 nM on mMC3R, 0.14 ± 0.01 nM at mMC1R, 2.4 ± 0.31 nM on mMC5R and 0.43 ± 0.13 nM on mMC4R.

Take `C#Cc1cccc(-c2cnnn2C[C@H](NC(=O)[C@H](Cc2ccccc2)NC(=O)[C@H](C)NC(=O)[C@H](CC(N)=O)NC(=O)[C@H](Cc2c[nH]c3ccccc23)NC(=O)[C@H](CCCNC(=N)N)NC(=O)[C@@H](Cc2ccccc2)NC(=O)[C@H](Cc2c[nH]cn2)NC(=O)[C@H](Cn2nncc2-c2cccc(C#C)c2)NC(=O)[C@@H](N)Cc2ccc(O)cc2)C(=O)N[C@@H](Cc2ccc(O)cc2)C(N)=O)c1` [Peptide 12] (H-Y[X2]H[dF]RWNAF[X2]Y-NH2): on mMC3R, the 50% effective concentration (EC50) was 404 ± 52 nM and the “Fold diff (mMC3R)” value was 184 fold. Also, at mMC1R, a half-maximal effect (EC50) was put at 116 ± 40 nM and the “Fold diff (mMC1R)” value worked out at 829 fold. For the same compound, on mMC5R, the half-maximal effective concentration (EC50) is 107 ± 17 nM and the “Fold diff (mMC5R)” value was determined as 45 fold. For the same compound, on mMC4R, the EC50 worked out at 142 ± 30 nM and the “Fold diff (mMC4R)” value is 330 fold.

The record behind these values is PMC5955799 (ACS chemical neuroscience, 2018).
